{"source": "ChEMBL document CHEMBL1759968", "about": "“Synthesis and biological evaluation of unsaturated keto and exomethylene D-arabinopyranonucleoside analogs: novel 5-fluorouracil analogs that target thymidylate synthase” (Eur J Med Chem, 2011)", "key": {"[1]": {"system": "Mammalian orthoreovirus 1", "experiment": "Antiviral activity against Reovirus 1 infected in Vero cells assessed as inhibition of virus-induced cytopathic effect", "assay_type": "functional, organism-based"}, "Human respirovirus 3": {"system": "Human respirovirus 3", "experiment": "Antiviral activity against Human parainfluenza virus 3 infected in Vero cells assessed as inhibition of virus-induced cytopathic effect", "assay_type": "functional, organism-based"}, "[2]": {"system": "Vesicular stomatitis virus", "experiment": "Antiviral activity against Vesicular stomatitis virus infected in HEL cells assessed as inhibition of virus-induced cytopathic effect", "assay_type": "functional, organism-based"}, "Vaccinia virus": {"system": "Vaccinia virus", "experiment": "Antiviral activity against Vaccinia virus infected in HEL cells assessed as inhibition of virus-induced cytopathic effect", "assay_type": "functional, organism-based", "conditions": "Orthopoxvirus vaccinia"}, "Human alphaherpesvirus 2": {"system": "Human alphaherpesvirus 2", "experiment": "Antiviral activity against Herpes simplex virus type-2 infected in HEL cells assessed as inhibition of virus-induced cytopathic effect", "assay_type": "functional, organism-based"}, "Human alphaherpesvirus 1": {"system": "Human alphaherpesvirus 1", "experiment": "Antiviral activity against Herpes simplex virus type-1 infected in HEL cells assessed as inhibition of virus-induced cytopathic effect", "assay_type": "functional, organism-based"}, "HeLa [3]": {"system": "HeLa", "experiment": "Ratio of compound IC50 to 5-flurouracil IC50 for human HeLa cells", "assay_type": "functional"}, "CCRF-CEM [4]": {"system": "CCRF-CEM", "experiment": "Ratio of compound IC50 to 5-flurouracil IC50 for human CEM cells", "assay_type": "functional"}, "FM3A [5]": {"system": "FM3A", "experiment": "Ratio of compound IC50 to 5-flurouracil IC50 for mouse FM3A cells", "assay_type": "functional"}, "L1210 [6]": {"system": "L1210", "experiment": "Ratio of compound IC50 to 5-flurouracil IC50 for mouse L1210 cells", "assay_type": "functional"}, "L1210 [7]": {"system": "L1210", "experiment": "Cytostatic activity against mouse L1210 cells after 2 days by coulter counting analysis", "assay_type": "functional, cell-based", "conditions": "L1210, 48 h"}, "FM3A [8]": {"system": "FM3A", "experiment": "Cytostatic activity against mouse FM3A cells after 2 days by coulter counting analysis", "assay_type": "functional, cell-based", "conditions": "48 h"}, "CCRF-CEM [9]": {"system": "CCRF-CEM", "experiment": "Cytostatic activity against human CEM cells after 3 days by coulter counting analysis", "assay_type": "functional, cell-based", "conditions": "72 h"}, "HeLa [10]": {"system": "HeLa", "experiment": "Cytostatic activity against human HeLa cells after 3 days by coulter counting analysis", "assay_type": "functional, cell-based", "conditions": "72 h"}, "L1210 [11]": {"system": "L1210", "experiment": "Cytostatic activity against mouse L1210 cells in presence of 20 uM thymidine", "assay_type": "functional, cell-based"}, "L1210 [12]": {"system": "L1210", "experiment": "Cytostatic activity against mouse L1210 cells in presence of 20 uM 2'-deoxyuridine", "assay_type": "functional, cell-based"}, "L1210 [13]": {"system": "L1210", "experiment": "Cytostatic activity against mouse L1210 cells in presence of 500 uM uridine", "assay_type": "functional, cell-based"}, "L1210 [14]": {"system": "L1210", "experiment": "Cytostatic activity against mouse L1210 cells in presence of 500 uM uracil", "assay_type": "functional, cell-based"}, "HeLa [15]": {"system": "HeLa", "experiment": "Cytostatic activity against human HeLa cells in presence of 20 uM thymidine", "assay_type": "functional, cell-based"}, "HeLa [16]": {"system": "HeLa", "experiment": "Cytostatic activity against human HeLa cells in presence of 20 uM 2'-deoxyuridine", "assay_type": "functional, cell-based"}, "HeLa [17]": {"system": "HeLa", "experiment": "Cytostatic activity against human HeLa cells in presence of 500 uM uridine", "assay_type": "functional, cell-based"}, "HeLa [18]": {"system": "HeLa", "experiment": "Cytostatic activity against human HeLa cells in presence of 500 uM uracil", "assay_type": "functional, cell-based"}, "L1210 [19]": {"system": "L1210", "experiment": "Inhibition of DNA synthesis in mouse L1210 cells assessed as [methyl-3H]thymidine incorporation in to DNA by liquid scintillation counting", "assay_type": "functional, cell-based"}, "L1210 [20]": {"system": "L1210", "experiment": "Inhibition of DNA synthesis in mouse L1210 cells assessed as [6-3H]2'-deoxyuridine incorporation in to DNA by liquid scintillation counting", "assay_type": "functional, cell-based"}, "L1210 [21]": {"system": "L1210", "experiment": "Inhibition of RNA synthesis in mouse L1210 cells assessed as [5-3H]uridine incorporation in to RNA by liquid scintillation counting", "assay_type": "functional, cell-based"}, "L1210 [22]": {"system": "L1210", "experiment": "Inhibition of DNA synthesis in mouse L1210 cells assessed as [methyl-3H]thymidine incorporation in to DNA preincubated for 24 hrs by liquid scintillation counting", "assay_type": "functional, cell-based"}, "L1210 [23]": {"system": "L1210", "experiment": "Inhibition of DNA synthesis in mouse L1210 cells assessed as [6-3H]2'-deoxyuridine incorporation in to DNA preincubated for 24 hrs by liquid scintillation counting", "assay_type": "functional, cell-based"}, "L1210 [24]": {"system": "L1210", "experiment": "Inhibition of RNA synthesis in mouse L1210 cells assessed as [5-3H]uridine incorporation in to RNA preincubated for 24 hrs by liquid scintillation counting", "assay_type": "functional, cell-based"}, "Punta Toro virus": {"system": "Punta Toro virus", "experiment": "Antiviral activity against Punta Toro virus infected in Vero cells assessed as inhibition of virus-induced cytopathic effect", "assay_type": "functional, organism-based"}, "[25]": {"system": "Vesicular stomatitis virus", "experiment": "Antiviral activity against Vesicular stomatitis virus infected in HeLa cells assessed as inhibition of virus-induced cytopathic effect", "assay_type": "functional, organism-based"}, "[26]": {"system": "Respiratory syncytial virus", "experiment": "Antiviral activity against Respiratory syncytial virus infected in HeLa cells assessed as inhibition of virus-induced cytopathic effect", "assay_type": "functional, organism-based"}, "Sindbis virus": {"system": "Sindbis virus", "experiment": "Antiviral activity against Sindbis virus infected in Vero cells assessed as inhibition of virus-induced cytopathic effect", "assay_type": "functional, organism-based"}, "Coxsackievirus B4 [27]": {"system": "Coxsackievirus B4", "experiment": "Antiviral activity against Human coxsackievirus B4 infected in Vero cells assessed as inhibition of virus-induced cytopathic effect", "assay_type": "functional, organism-based"}, "Coxsackievirus B4 [28]": {"system": "Coxsackievirus B4", "experiment": "Antiviral activity against Human coxsackievirus B4 infected in HeLa cells assessed as inhibition of virus-induced cytopathic effect", "assay_type": "functional, organism-based"}}, "note": "Calls of active or inactive are those of the source. No cut-off for these calls is given here."}
{"smiles": "O=C1C=CCO[C@@H]1n1cc(F)c(O)nc1=O", "values": [{"measurement": "Activity", "setting": "[1]", "result": "inactive"}, {"measurement": "Activity", "setting": "Human respirovirus 3", "result": "inactive"}, {"measurement": "Activity", "setting": "[2]", "result": "inactive"}, {"measurement": "Activity", "setting": "Vaccinia virus", "result": "inactive"}, {"measurement": "Activity", "setting": "Human alphaherpesvirus 2", "result": "inactive"}, {"measurement": "Activity", "setting": "Human alphaherpesvirus 1", "result": "inactive"}, {"measurement": "Ratio", "setting": "HeLa [3]", "result": 1.5}, {"measurement": "Ratio", "setting": "CCRF-CEM [4]", "result": 1.5}, {"measurement": "Ratio", "setting": "FM3A [5]", "result": 1.5}, {"measurement": "Ratio", "setting": "L1210 [6]", "result": 1.5}, {"measurement": "IC50", "setting": "L1210 [7]", "result": 1.3, "unit": "µM"}, {"measurement": "IC50", "setting": "FM3A [8]", "result": 0.23, "unit": "µM"}, {"measurement": "IC50", "setting": "CCRF-CEM [9]", "result": 17, "unit": "µM"}, {"measurement": "IC50", "setting": "HeLa [10]", "result": 0.97, "unit": "µM"}, {"measurement": "IC50", "setting": "L1210 [11]", "result": 75, "unit": "µM"}, {"measurement": "IC50", "setting": "L1210 [12]", "result": 3.5, "unit": "µM"}, {"measurement": "IC50", "setting": "L1210 [13]", "result": 2, "unit": "µM"}, {"measurement": "IC50", "setting": "L1210 [14]", "result": 1, "unit": "µM"}, {"measurement": "IC50", "setting": "HeLa [15]", "result": 7.1, "unit": "µM"}, {"measurement": "IC50", "setting": "HeLa [16]", "result": 0.62, "unit": "µM"}, {"measurement": "IC50", "setting": "HeLa [17]", "result": 5.3, "unit": "µM"}, {"measurement": "IC50", "setting": "HeLa [18]", "result": 8, "unit": "µM"}, {"measurement": "IC50", "setting": "L1210 [19]", "result": 349, "unit": "µM"}, {"measurement": "IC50", "setting": "L1210 [20]", "result": 3.1, "unit": "µM"}, {"measurement": "IC50", "setting": "L1210 [21]", "result": 63, "unit": "µM"}, {"measurement": "IC50", "setting": "L1210 [22]", "result": 294, "unit": "µM"}, {"measurement": "IC50", "setting": "L1210 [23]", "result": 2.5, "unit": "µM"}, {"measurement": "IC50", "setting": "L1210 [24]", "result": 16, "unit": "µM"}, {"measurement": "Activity", "setting": "Punta Toro virus", "result": "inactive"}, {"measurement": "Activity", "setting": "[25]", "result": "inactive"}, {"measurement": "Activity", "setting": "[26]", "result": "inactive"}, {"measurement": "Activity", "setting": "Sindbis virus", "result": "inactive"}, {"measurement": "Activity", "setting": "Coxsackievirus B4 [27]", "result": "inactive"}, {"measurement": "Activity", "setting": "Coxsackievirus B4 [28]", "result": "inactive"}]}
